According to patent publication US20240116985A1, “STAPLED PEPTIDES AND METHODS THEREOF” (priority 2020, published 2024):

Experiments:
[1] = target: T1, full-length beta-Catenin (Uniprot ID P35222) (Homo sapiens, UniProt P35222); assay: Fluorescence polarization IC50 (beta-catenin / 5FAM-TCF4 10-53 competition); assay type: binding; details: fluorescence polarization; read-out: beta-Catenin FP IC50
T1 construct: 10 nM full-length beta-Catenin (Uniprot ID P35222)
T1 sequence (P35222 1-781): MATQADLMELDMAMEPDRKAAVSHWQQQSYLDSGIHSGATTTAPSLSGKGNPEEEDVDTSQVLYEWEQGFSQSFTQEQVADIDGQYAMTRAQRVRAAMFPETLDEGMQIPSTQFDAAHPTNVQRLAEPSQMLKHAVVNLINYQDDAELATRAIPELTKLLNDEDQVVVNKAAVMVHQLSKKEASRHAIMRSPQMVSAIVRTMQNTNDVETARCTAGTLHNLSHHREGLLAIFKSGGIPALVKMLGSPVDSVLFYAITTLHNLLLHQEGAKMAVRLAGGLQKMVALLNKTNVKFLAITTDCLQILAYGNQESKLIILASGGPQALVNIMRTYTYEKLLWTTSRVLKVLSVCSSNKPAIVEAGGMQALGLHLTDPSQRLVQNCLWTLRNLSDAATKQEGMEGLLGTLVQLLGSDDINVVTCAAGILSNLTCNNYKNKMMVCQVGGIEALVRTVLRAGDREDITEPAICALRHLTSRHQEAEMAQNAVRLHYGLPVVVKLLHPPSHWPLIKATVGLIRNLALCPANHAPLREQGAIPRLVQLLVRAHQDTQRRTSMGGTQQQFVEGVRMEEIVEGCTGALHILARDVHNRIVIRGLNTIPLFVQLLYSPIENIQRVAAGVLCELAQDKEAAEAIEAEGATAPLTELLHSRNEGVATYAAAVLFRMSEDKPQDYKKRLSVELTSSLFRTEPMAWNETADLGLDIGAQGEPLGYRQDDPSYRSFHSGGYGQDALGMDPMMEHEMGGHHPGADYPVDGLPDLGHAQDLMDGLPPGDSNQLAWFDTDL

[2] = target: T2, beta-catenin/TCF4 engagement (Homo sapiens, UniProt P35222); assay: Nano-BRET target engagement assay (B-cat-Halo & TCF4-Luc in HEK293 cells); assay type: cell-based; details: absolute IC50; read-out: NanoBRET Abs IC50
T2 construct: expressed in transfected cells; host or cells: HEK293
T2 sequence (P35222 1-781): T1 sequence (P35222 1-781)

Compound | IC50 [1] [nM] | IC50 [2] [nM]
CC(=O)N1CCC[C@]12CC=CCCCC1(CCCC=CCCCCCC[C@@](C)(C(=O)N[C@@H](Cc3cccs3)C(=O)N[C@@H](Cc3csc4ccccc34)C(=O)N[C@@H](CCC(N)=O)C(N)=O)NC(=O)[C@H](CC(N)=O)NC(=O)[C@H](Cc3ccccc3)NC(=O)[C@H](C)NC(=O)[C@H](C)NC(=O)[C@H](CC(=O)O)NC(=O)[C@H](CC(=O)O)NC1=O)NC(=O)[C@H](CC(C)(C)C)NC(=O)[C@H](CC(=O)O)NC2=O (stereo partly drawn) [I-1391, Ac-PL3-Asp-Npg-B5-Asp-Asp-Ala-Ala-Phe-Asn-S8-2Thi-BztA-Gln-NH2] | 11 | 35000
CC(=O)N1CCC[C@]12CC=CCCCC1(CCCC=CCCCCCC[C@@](C)(C(=O)N[C@@H](Cc3cccs3)C(=O)N[C@@H](Cc3csc4ccccc34)C(=O)N[C@@H](CCC(N)=O)C(N)=O)NC(=O)[C@H](CCO)NC(=O)[C@H](Cc3ccccc3)NC(=O)[C@H](C)NC(=O)[C@H](C)NC(=O)[C@H](CC(=O)O)NC(=O)[C@H](CC(=O)O)NC1=O)NC(=O)[C@H](CC(C)(C)C)NC(=O)[C@H](CC(=O)O)NC2=O (stereo partly drawn) [I-1392, Ac-PL3-Asp-Npg-B5-Asp-Asp-Ala-Ala-Phe-Hse-S8-2Thi-BztA-Gln-NH2] | 13 | 18300
CC(=O)N1CCC[C@]12CC=CCCCC1(CCCC=CCCCCCC[C@@](C)(C(=O)N[C@@H](Cc3cccs3)C(=O)N[C@@H](Cc3csc4ccccc34)C(=O)N[C@H](CO)[C@@H](C)O)NC(=O)[C@H](CCO)NC(=O)[C@H](Cc3ccccc3)NC(=O)[C@H](C)NC(=O)[C@H](C)NC(=O)[C@H](CC(=O)O)NC(=O)[C@H](CC(=O)O)NC1=O)NC(=O)[C@H](CC(C)(C)C)NC(=O)[C@H](CC(=O)O)NC2=O (stereo partly drawn) [I-1393, Ac-PL3-Asp-Npg-B5-Asp-Asp-Ala-Ala-Phe-Hse-S8-2Thi-BztA-Thro1] | 34 | 18600
CC(=O)N1CCC[C@]12CC=CCCCC1(CCCC=CCCCCCC[C@@](C)(C(=O)N[C@@H](Cc3ccccc3Cl)C(=O)N[C@@H](Cc3csc4ccccc34)C(=O)N[C@@H](CCC(N)=O)C(N)=O)NC(=O)[C@H](CC(N)=O)NC(=O)[C@H](Cc3ccccc3)NC(=O)[C@H](C)NC(=O)[C@H](C)NC(=O)[C@H](CC(=O)O)NC(=O)[C@H](CC(=O)O)NC1=O)NC(=O)[C@H](CC(C)(C)C)NC(=O)[C@H](CC(=O)O)NC2=O (stereo partly drawn) [I-1394, Ac-PL3-Asp-Npg-B5-Asp-Asp-Ala-Ala-Phe-Asn-S8-2C1F-BztA-Gln-NH2] | 9 | 15900
CC(=O)N1CCC[C@]12CC=CCCCC1(CCCC=CCCCCCC[C@@](C)(C(=O)N[C@@H](Cc3ccccc3Cl)C(=O)N[C@@H](Cc3csc4ccccc34)C(=O)N[C@@H](CCC(N)=O)C(N)=O)NC(=O)[C@H](CCO)NC(=O)[C@H](Cc3ccccc3)NC(=O)[C@H](C)NC(=O)[C@H](C)NC(=O)[C@H](CC(=O)O)NC(=O)[C@H](CC(=O)O)NC1=O)NC(=O)[C@H](CC(C)(C)C)NC(=O)[C@H](CC(=O)O)NC2=O (stereo partly drawn) [I-1395, Ac-PL3-Asp-Npg-B5-Asp-Asp-Ala-Ala-Phe-Hse-S8-2C1F-BztA-Gln-NH2] | 33 | 15400
CC(=O)N1CCC[C@]12CC=CCCCC1(CCCC=CCCCCCC[C@@](C)(C(=O)N[C@@H](Cc3ccccc3C(F)(F)F)C(=O)N[C@@H](Cc3csc4ccccc34)C(=O)N[C@@H](CCC(N)=O)C(N)=O)NC(=O)[C@H](CC(N)=O)NC(=O)[C@H](Cc3ccccc3)NC(=O)[C@H](C)NC(=O)[C@H](C)NC(=O)[C@H](CC(=O)O)NC(=O)[C@H](CC(=O)O)NC1=O)NC(=O)[C@H](CC(C)(C)C)NC(=O)[C@H](CC(=O)O)NC2=O (stereo partly drawn) [I-1396, Ac-PL3-Asp-Npg-B5-Asp-Asp-Ala-Ala-Phe-Asn-S8-2F3MeF-BztA-Gln-NH2] | 33 | 15300

Further lines, results first:

IC50 [1] [nM] | IC50 [2] [nM] | Compound
48 | 16400 | CC(=O)N1CCC[C@]12CC=CCCCC1(CCCC=CCCCCCC[C@@](C)(C(=O)N[C@@H](Cc3ccccc3C(F)(F)F)C(=O)N[C@@H](Cc3csc4ccccc34)C(=O)N[C@@H](CCC(N)=O)C(N)=O)NC(=O)[C@H](CCO)NC(=O)[C@H](Cc3ccccc3)NC(=O)[C@H](C)NC(=O)[C@H](C)NC(=O)[C@H](CC(=O)O)NC(=O)[C@H](CC(=O)O)NC1=O)NC(=O)[C@H](CC(C)(C)C)NC(=O)[C@H](CC(=O)O)NC2=O (stereo partly drawn) [I-1397, Ac-PL3-Asp-Npg-B5-Asp-Asp-Ala-Ala-Phe-Hse-S8-2F3MeF-BztA-Gln-NH2]
13 | 17400 | CC(=O)N1CCC[C@]12CC=CCCCC1(CCCC=CCCCOC(=O)N3CC[C@@](C(=O)N[C@@H](Cc4ccsc4)C(=O)N[C@@H](Cc4csc5ccccc45)C(=O)N[C@@H](CCC(N)=O)C(N)=O)(C3)NC(=O)[C@H](CC(C)C)NC(=O)[C@H](Cc3ccccc3)NC(=O)[C@H](C)NC(=O)[C@H](C)NC(=O)[C@H](CC(=O)O)NC(=O)[C@H](CC(=O)O)NC1=O)NC(=O)[C@H](CC(C)C)NC(=O)[C@H](CC(=O)O)NC2=O (stereo partly drawn) [I-1399, Ac-PL3-Asp-Leu-B5-Asp-Asp-Ala-Ala-Phe-Leu-PyrS2-3Thi-BztA-Gln-NH2]
5 | 20300 | CCCC[C@@H]1NC(=O)[C@H](CC(=O)O)NC(=O)[C@]2(CC=CCCCC3(CCCC=CCCCOC(=O)N4CC[C@@](C(=O)N[C@@H](Cc5ccsc5)C(=O)N[C@@H](Cc5csc6ccccc56)C(=O)N[C@@H](CCC(N)=O)C(N)=O)(C4)NC(=O)[C@H](CC(C)C)NC(=O)[C@H](Cc4ccccc4)NC(=O)[C@H](C)NC(=O)[C@H](C)NC(=O)[C@H](CC(=O)O)NC(=O)[C@H](CC(=O)O)NC3=O)NC1=O)CCCN2C(C)=O (stereo partly drawn) [I-1400, Ac-PL3-Asp-nLeu-B5-Asp-Asp-Ala-Ala-Phe-Leu-PyrS2-3Thi-BztA-Gln-NH2]
5 | 21400 | CCCC[C@@H]1NC(=O)[C@H](CC(=O)O)NC(=O)[C@]2(CC=CCCCC3(CCCC=CCCCOC(=O)N4CC[C@@](C(=O)N[C@@H](Cc5ccsc5)C(=O)N[C@@H](Cc5csc6ccccc56)C(=O)N[C@@H](CCC(N)=O)C(N)=O)(C4)NC(=O)[C@H](CCCC)NC(=O)[C@H](Cc4ccccc4)NC(=O)[C@H](C)NC(=O)[C@H](C)NC(=O)[C@H](CC(=O)O)NC(=O)[C@H](CC(=O)O)NC3=O)NC1=O)CCCN2C(C)=O (stereo partly drawn) [I-1401, Ac-PL3-Asp-nLeu-B5-Asp-Asp-Ala-Ala-Phe-nLeu-PyrS2-3Thi-BztA-Gln-NH2]
6 | 29100 | CCCC[C@@H]1NC(=O)[C@H](CC(=O)O)NC(=O)[C@]2(CC=CCCCC3(CCCC=CCCCOC(=O)N4CC[C@@](C(=O)N[C@@H](Cc5ccccc5)C(=O)N[C@@H](Cc5csc6ccccc56)C(=O)N[C@@H](CCC(N)=O)C(N)=O)(C4)NC(=O)[C@H](CC(C)C)NC(=O)[C@H](Cc4ccccc4)NC(=O)[C@H](C)NC(=O)[C@H](C)NC(=O)[C@H](CC(=O)O)NC(=O)[C@H](CC(=O)O)NC3=O)NC1=O)CCCN2C(C)=O (stereo partly drawn) [I-1403, Ac-PL3-Asp-nLeu-B5-Asp-Asp-Ala-Ala-Phe-Leu-PyrS2-Phe-BztA-Gln-NH2]
113 | 36800 | CCCC[C@@H]1NC(=O)[C@H](Cc2ccccc2)NC(=O)[C@H](C)NC(=O)[C@H](C)NC(=O)[C@H](CC(=O)O)NC(=O)[C@H](CC(=O)O)NC(=O)C2(CCCC=CCCCOC(=O)N3CC[C@@](C(=O)N[C@@H](Cc4ccccc4)C(=O)N[C@@H](Cc4csc5ccccc45)C(=O)N[C@@H](CCC(N)=O)C(N)=O)(C3)NC1=O)CCCC=CC[C@]1(CCCN1C(C)=O)C(=O)N[C@@H](CC(=O)O)C(=O)N[C@@H](CC(C)C)C(=O)N2 (stereo partly drawn) [I-1404, Ac-PL3-Asp-Leu-B5-Asp-Asp-Ala-Ala-Phe-nLeu-PyrS2-Phe-BztA-Gln-NH2]
9 | 40100 | CCCC[C@@H]1NC(=O)[C@H](CC(=O)O)NC(=O)[C@]2(CC=CCCCC3(CCCC=CCCCOC(=O)N4CC[C@@](C(=O)N[C@@H](Cc5ccccc5)C(=O)N[C@@H](Cc5csc6ccccc56)C(=O)N[C@@H](CCC(N)=O)C(N)=O)(C4)NC(=O)[C@H](CCCC)NC(=O)[C@H](Cc4ccccc4)NC(=O)[C@H](C)NC(=O)[C@H](C)NC(=O)[C@H](CC(=O)O)NC(=O)[C@H](CC(=O)O)NC3=O)NC1=O)CCCN2C(C)=O (stereo partly drawn) [I-1405, Ac-PL3-Asp-nLeu-B5-Asp-Asp-Ala-Ala-Phe-nLeu-PyrS2-Phe-BztA-Gln-NH2]
6 | 5000 | CC(=O)N1CCC[C@]12CC=CCCCC1(CCCC=CCCCOC(=O)N3CC[C@@](C(=O)N[C@@H](Cc4ccsc4)C(=O)N[C@@H](Cc4csc5ccccc45)C(=O)N[C@@H](CCC(N)=O)C(N)=O)(C3)NC(=O)[C@H](CC(C)C)NC(=O)[C@H](Cc3ccccc3)NC(=O)[C@H](C)NC(=O)[C@H](C)NC(=O)[C@H](Cc3cccc(C(=O)O)c3)NC(=O)[C@H](CC(=O)O)NC1=O)NC(=O)[C@H](CC(C)C)NC(=O)[C@H](CC(=O)O)NC2=O (stereo partly drawn) [I-1406, Ac-PL3-Asp-Leu-B5-Asp-3COOHF-Ala-Ala-Phe-Leu-PyrS2-3Thi-BztA-Gln-NH2]
